The data set can be described thus: Stability of free peptide incubated in release medium (HPLC). The data set is classed as physicochemical. The conditions noted are these: free peptide incubated in release medium (PBS, pH 7.2, 37 C), after 49 days. As for the experimental part: Octreotide acetate as the free peptide was measured to be 95% intact by high-pressure liquid chromatography (HPLC) following incubation in the release medium (PBS, pH 7.2, 37° C.) after 49 days. In contrast, incubation of octreotide acetate PLGA microparticle formulations produced 55% of modified peptide species after 70 days in the release medium (PBS, pH 7.2, 37° C., Table 2). […] The masses found were consistent with random acylation, for example, peptide plus one or two glycolic or lactic acid monomers in any combination. It may be that acylation products arise from attack on PLGA fragments or the polymer backbone by nucleophilic moieties in octreotide. At a lower pH these moieties likely would be protonated reducing their nucleophilicity and consequently the amount of acylated product. It was observed that formation of acylated byproducts for octreotide acetate PLGA microparticles incubated in 100 mM sodium acetate (NaOAc, pH 4.0) buffer was reduced to 1.25% at 49 days, in marked contrast to the results for PBS buffer (55%).

As for `C[C@@H](O)[C@@H]1NC(=O)[C@H](CCCCN)NC(=O)[C@@H](Cc2c[nH]c3ccccc23)NC(=O)[C@H](Cc2ccccc2)NC(=O)[C@@H](NC(=O)[C@H](N)Cc2ccccc2)CSSC[C@@H](C(=O)N[C@H](CO)[C@@H](C)O)NC1=O` [Octreotide acetate], the “Peptide intact by HPLC” value is reported as 95%.

The record behind these values is US8871269B2, “Method for the preparation of controlled release formulations” (Evonik Corporation, priority 2003, dated 2014).
